Results published in the supplement of paper PMC10784567.
± gives the standard deviation of the averaged measurements.

Compound: C=C1C[C@H]2C=Nc3cc(OCCCCCOc4cc5c(cc4OC)C(=O)N4CC(=C)C[C@H]4C=N5)c(OC)cc3C(=O)N2C1 [SG2057]
Assay: absolute IC50 (cell viability, CellTiter-Glo); higher = less potent
Conditions: treatment time: 3 days
Procedure: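 Large cancer cell line panel screens in 384-well plates. Cells were treated for 3 days with a 9-point dose titration of the free PBD dimer SG2057; viability was read with CellTiter-Glo. Absolute IC50 came from a four-parameter Hill fit normalised to the median of vehicle (DMSO) wells. Several independent screens (projects) per cell line are averaged; values in µM, lowest-dose floor about 1.524e-5 µM.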

Test System	absolute IC50 [nM]
SCLC-21H	0.788
Capan-2	4.33 ± 0.82
NCI-H2170	0.646 ± 0.011
PE/CA-PJ15	0.216
HMY-1	1.17 ± 0.94
KYSE-140	0.496
NCI-H2461	0.545 ± 0.89
MKN-74	2.17
HEC-1-B	6.12
GB-1	1.12
COLO 824	0.192
Panc 05.04	1.68 ± 0.4
NCI-H1770	7.47
SW 948	3.39 ± 3.9
NCI-H2023	0.142 ± 0.27
KM-12	3.65
OE21	0.259
CAL-120	2.01 ± 2.9
SKG-II	0.0743
EFM-192A	1.2
SNB-19	0.187
HCC1054	0.292
MMAc	0.868
HPAF-II	4.04 ± 0.15
RKO-E6	1.32 ± 2.1

Test System	absolute IC50 [nM]
Pfeiffer	1.21 ± 2
HCC1159	0.67
KYSE-180	0.667
COLO 320	12
SISO	0.153
COLO 685	1.32
KARPAS-299	0.581 ± 1.1
G142	0.556 ± 1
LL/2	0.449
HCSC-1	3.07
HMVII	0.434 ± 0.73
RVH-421	0.569
MKN-7	1.67
HCC4011	4.15 ± 4.6
FTC-238	0.101
IGROV-1	1.14 ± 1.6
SJSA-1	0.0954
SNU-216	1.57 ± 2.9
KPR3070	1.35
501A	0.378 ± 0.25
FU97	1.57
NCI-H2731	1.29 ± 1.9
ONS-76	0.487
A20	< 0.0152
SW 1990	0.516 ± 0.22

Test System	absolute IC50 [nM]
KPP14449	1.53
OCUM-1	0.529 ± 0.32
G-401	0.305 ± 0.16
SNU-620	2.3 ± 3.1
OUMS-23	1.71 ± 0.89
537 MEL	1.23 ± 0.94
ONCO-DG-1	1.36 ± 2.2
HCC1428	6.01 ± 0.31
B16-F1	0.595
HDQ-P1	4.08 ± 4.4
COLO 858	1.72 ± 1.4
NCI-H520	4.03 ± 2.5
NCI-H446	0.244
MKN-1	0.867 ± 1.1
HLE	2.7
NAMALWA	0.0643 ± 0.031
Ishikawa	0.311
COLO 794	0.0985 ± 0.063
PA-1	0.0473 ± 0.056
HT-55	3.75 ± 2.6
AU565	0.835 ± 0.35
COLO 320DM	20.2
G96	0.588
UM-UC-1	0.557
SiHa	1.56

Test System	absolute IC50 [nM]
MCF 10A PTEN -/- (Sigma)	2.54
FOX-NY	0.0773
HPAC	13.2 ± 25
B-CPAP	0.345
OVCAR-5	1.08 ± 0.3
HCA-1	4.69
PL45	0.402
NCI-H2452	2.95 ± 3
DMS 273	1.38
ABC-1	0.365 ± 0.24
KYSE-270	0.409
4498-16820 Mel-BR1 X1	0.911
MDA-MB-361	1.96 ± 2.5
COLO 792	3.47
A-427	0.831
COR-L279	0.082
SK-CO-1	0.201 ± 0.19
KMS-28PE	0.0647 ± 0.036
FTC-133	0.122
CL-34	1.69 ± 3.5
JHH-7	1.94
8305C	0.706
HCC89	4.66 ± 3.1
Hs 38.T	1.36 ± 1.7
FA9JTOTERT	0.435

Test System	absolute IC50 [nM]
SIMA	0.863
Ca Ski	0.254
NCI-H1915	2.4
MAVER-1	0.0955 ± 0.065
NCI-H1155	0.221 ± 0.2
MDA-MB-453	3.21 ± 2.3
HCC2885	0.801
BEN	43.1
G111	0.208 ± 0.22
RCM-1	3.33 ± 5.4
CAL 27	0.164
SNU-484	0.327 ± 0.11
KMRC-1	1.26
AsPC-1	5.12 ± 5.9
NCI-H2803	3.86
Hs 852.T	0.582 ± 0.063
Hs 839.T	6.79
SK-HEP-1	0.205
51BLim 10	0.371
COLO 205	1.52 ± 0.48
DOV 13	0.241 ± 0.31
HEC-50B	0.713
LN-18	2.2 ± 1.4
KMS-34	0.272 ± 0.27
HCC2302	8.98

Test System	absolute IC50 [nM]
NCI-H522	0.544
NCI-H1993	0.564
NCI-H358	0.959 ± 0.56
B16-F10 Luciferase	0.894
NCI-H1355	2.88 ± 3
1624-17095 (Tumor A)	1.31
OV-90	2.13 ± 1.3
KP-2	4.15
BT-B	0.864
NCI-H1666	0.888 ± 0.43
MC-IXC	0.0163
NCI-H226	1.27 ± 2.5
Hs 294T	0.469 ± 0.75
NCI-H2135	5.6
4498-14745 Mel-BR3	0.39
DLD-1	1.01 ± 0.81
COV413B	2.73 ± 3.9
105KC (DODx)	3.56
VP267	4.86
KELLY	0.12
Calu-3	1.55 ± 0.058
CX-1	1.82 ± 2
KP-3L	2.69 ± 0.26
CAL-85-1	1.67 ± 0.48
LTPA	1.46

Test System	absolute IC50 [nM]
Daudi	0.155 ± 0.24
MM.1S	0.474 ± 0.49
KMRC-20	3.45
NCI-H2373	0.217 ± 0.18
KPP-1 (KPP-PDAC) XENOGRAFT	0.168
KPR3351	0.931
KLM-1	1 ± 0.96
SNU-601	0.0897 ± 0.046
OVCAR-4	1.33 ± 0.49
KURAMOCHI	4.22
NCI-H2073	28.9
SNU-182	1.36 ± 1.5
Kasumi-1	4.11
OAW28	5.25
HT-3	0.212
HUP-T4	1.09 ± 1.1
KR7251	0.557
A-498	2.47
NCI-H2804	0.718 ± 0.98
IGR-1	0.75 ± 0.91
H322T	2.68 ± 2.1
RPMI 2650	0.539 ± 0.27
HCC4019	4.51 ± 2.9
Hs 578T	1.51 ± 1.3
C170	2.97 ± 1.1

Test System	absolute IC50 [nM]
NB69	0.612
AM-38	4.53
G59	0.803 ± 0.82
SNU-C1	3.4 ± 0.35
OCI-AML5	0.0729 ± 0.11
NCI-H2106	1.36 ± 0.71
KPL-1	2.48 ± 1.5
KYSE-450	0.564
SF268	0.424 ± 0.77
COLO 679	0.435 ± 0.34
COR-L26	0.211 ± 0.31
MES-SA	0.135 ± 0.14
G121	0.799 ± 0.38
U-2932	0.213 ± 0.23
1624-16997 (Tumor B)	0.909
UCSD-242l	1.29 ± 0.84
SJCRH30	0.422
RT4	2.35
BHY	0.183
KR7414	1.45
ATRFLOX	0.211 ± 0.41
GP5d	1.93 ± 1.5
MCF-7	2.5 ± 1.7
ECC-1	1.04
JHH-4	0.555 ± 0.54

Test System	absolute IC50 [nM]
TC-1	0.384
NCI-H441	0.535
COLO 853	1 ± 0.73
S-117	2.29
PLC/PRF/5	8.3
KE-97	0.193 ± 0.11
LS1034	5.72
JJ012 (DODx)	1.42
SK-N-SH	0.114
SF539	0.27 ± 0.54
OVCA 420	2.24 ± 2.3
CFPAC-1	0.526 ± 0.55
KYSE-510	0.0686
KLE	12.1 ± 8.9
SUM 52PE	2.62 ± 1.5
OCI-M1	0.227 ± 0.13
DEOC-1	18.9
T98G	3.18 ± 3.7
BICR 22	0.854
WiDr	1.38 ± 0.42
NTERA-2	< 0.0152
KMS-12-PE	0.433
HCC880	2.86
HEL	0.067 ± 0.0071
MeWo	1.08 ± 0.37

Test System	absolute IC50 [nM]
G61	0.189 ± 0.015
OAW42	1.38 ± 1.6
HNT-34	0.076 ± 0.067
G28T	0.984 ± 1
huH-1	2.28
MC-38	0.186
Renca	10.3 ± 12
LNCAP clone FGC	0.365 ± 0.13
COV318	5.85 ± 6.6
NCI-H2052	0.717
JHH-6	3.4
1321N1	0.0321
Panc 02.03	2.51 ± 3.8
KATO III	5.09
G140	1.28 ± 1.7
GCH-nu-YS	0.242
LoVo	1.52 ± 0.43
SU.86.86	0.733 ± 0.48
HCC1623	5.3
SK-N-BE(2)	1.64
KLN 205	2.12
MDA-MB-468	0.353 ± 0.36
SNU-16	0.344 ± 0.1
